Reference: patent US20020142297A1, “Compositions and methods for imaging gene expression” (The General Hospital Corporation, a Massachusetts …, priority 1997, published 2002)

Tests used:
[1] = In vivo detection of RPCs in muscle tissue (gamma imaging after i.v. 99mTc gluceptate); conditions: rats, rectus femoris muscle injected with RPC; 1 hour after i.v. injection of 0.5 mCi 99mTc gluceptate
Protocol: RPCs having the sequences GGGCGGGCGGGC (SEQ ID NO: 13) and GGGCGGGC (SEQ ID NO: 14) were dissolved in sterile saline to give a concentration of 1 μM thiol (i.e., the —SH function groups of cysteine residues). 100 μl of this solution was injected into the rectus femoris muscles of anesthetized rats. Ten minutes after injection, 0.5 mCi of ^99mTc gluceptate-[bis(oxotechnetate(v)glucoheptonate] anion was injected via intravenous catheter. The animals were imaged at 10 minutes and at 1 hour after the injection of the isotope. It was suspected that Tc glucoheptonate can permeate into the interstitium and be taken up non-specifically (e.g., by pinocytosis) by resident cells, thus creating background activity.
Nonetheless, the radioactivity that had accumulated in the injected muscle 1 hour after injection with the RPC containing three consecutive GGGC repeats (SEQ ID NO: 13) or two consecutive GGGC repeats (SEQ ID NO: 14) were 3- or 2-fold higher, respectively, than the radioactivity that had accumulated in the contralateral (control) muscle at that time. No differences in radioactivity accumulated in injected vs. control muscles were detected in animals injected with saline, or an RPC pretreated with N-ethylmaleimide to block oxotechnetate-binding sites.

[2] = Labeling of RPC with 99mTc-glucoheptonate and stability of the metal-RPC complex by reverse-phase HPLC; assay type: binding
Protocol: The tetrapeptide WGGC (SEQ ID NO: 1) was incubated with ^99mTc-gluccheptonate. […] The label was ascertained to be stably associated with the peptide for at least 24 hours as determined by reverse-phase high performance liquid chromatography (HPLC) (see, FIG. 7).
FIGS. 6 and 7 are the HPLC traces corresponding to the binding 30 minutes and 24 hours post-injection, respectively. In both traces, the bold line represents radioactivity and the thin line represents absorbance. The naked ^99mTc-glucoheptonate has a retention time of 2 minutes, while the RPC-Tc complex has a retention time of 5 to 9 minutes.

share of total integral at 2 minutes (retention time of naked 99mTc-glucoheptonate) ([2]; 24 hours, HPLC radioactivity trace (FIG. 7)) [%] | time the label is stably associated with the peptide ([2]; reverse-phase HPLC) | Substance | radioactivity accumulated in the injected muscle vs. the contralateral (control) muscle [1] [fold] | radiation at 2 minutes (retention time of naked 99mTc-glucoheptonate) ([2]; 30 minutes, HPLC radioactivity trace (FIG. 6)) | labeling of the peptide ([2]; incubated with 99mTc-glucoheptonate, within 30 minutes) [%]
 |  | GGGCGGGC [SEQ ID NO: 14, RPC containing two consecutive GGGC repeats] | 2 |  | 
 |  | GGGCGGGCGGGC [SEQ ID NO: 13] | 3 |  | 
0.468 | at least 24 hours | WGGC |  | no radiation is observed above the baseline | 99
